Literature values as cited in US20210267955A1, “LOW DOSE ORAL PHARMACEUTICAL COMPOSITION OF PIRFENIDONE OR SALT THEREOF” (Zenvision Pharma LLP, priority 2018, published 2021).

Conditions: methanol, ethyl alcohol, acetone, chloroform vs water and 1.0 N hydrochloric acid

## Cc1ccc(=O)n(-c2ccccc2)c1 [Pirfenidone, 5-methyl-1-phenyl-2-(1H)-pyridone]
  solubility (qualitative): more soluble in methanol, ethyl alcohol, acetone and chloroform than in water and 1.0 N hydrochloric acid
